From patent US7166275B2, “Compositions containing phenethyl aryl esters as solubilizing agents for active organic compounds” (ISP Investments Inc., priority 2003, dated 2007)

What was measured:
[1] = Solubility of active compounds in 2-phenylethyl benzoate, determined by GLC; format: physicochemical; conditions: for Solubility (soluble up to) in 2-phenylethyl benzoate: solvent 2-phenylethyl benzoate, 25° C.
Protocol: Predetermined weight/weight (w/w) solutions were prepared at 50° C. using a given solvent and Escalol® 517 or Escalol® 567. […] A small seed crystal was added at 25° C. to hasten equilibration. Solubility limits were determined by observation of the amount of solid present, and then more precisely by a GLC method (see Example 15).
5-Chloro-2-(2,4-dichlorophenoxy)phenol (Triclosan) has bacteriostatic properties and is used as a disinfectant and preservative in cosmetic and detergent preparations. It is soluble up to 69% w/w in 2-phenylethyl benzoate, as determined by GLC. Thus, 50% w/w and 60% w/w mixtures were homogeneous solutions at 25° C., but a 70% w/w solution prepared at 70° C. precipitated a small amount of solid when seeded at 25° C. and allowed to stand for 3 days.
An 80% w/w solution prepared from 8.002 g of Triclosan and 2.009 g of 2-phenylethyl benzoate precipitated a significant amount of solid at 25° C. A 23.3-mg sample of the supernatant was dissolved in 1.00 mL of chloroform and 1.00 μL was injected via automatic injector into a GLC instrument. The areas of the 2-phenylethyl benzoate and Triclosan peaks were 9381 and 12953, respectively. The mixture was heated at 70° C. until it was homogeneous, and an 18.2-mg sample was dissolved and injected in the same manner. […] (Note that the amount injected was 3.6 μg+14.6 μg=18.2 μg.) Therefore, under our GLC conditions the response factors were 1240 units/μg and 770 units/μg, respectively. Then, the respective amounts of each component in the supernatant were 9381/1240 =7.6 μg and 12953/770 =16.8 μg, which corresponds to 69% w/w Triclosan.

[2] = Solubility of solid organic sunscreens (Escalol 517, Escalol 567) in various solvents; format: physicochemical; conditions: solutions prepared at 50° C., stood 1 week at 25° C., seeded
Protocol: A small seed crystal was added at 25° C. to hasten equilibration.

SMILES	Solubility (soluble up to) in 2-phenylethyl benzoate [1] [% w/w]	Solubility of Escalol 517 in the solvent ([2]; solute Escalol 517 (avobenzone)) [% w/w]	Solubility of Escalol 567 in the solvent ([2]; solute Escalol 567 (benzophenone-3)) [% w/w]	Solubility (soluble up to) in 2-phenylethyl benzoate/N-methylpyrrolidinone (1:1 w/w) ([1]; solvent 2-phenylethyl benzoate/N-methylpyrrolidinone (1:1 w/w)) [% w/w]
Oc1cc(Cl)ccc1Oc1ccc(Cl)cc1Cl [Triclosan, 5-Chloro-2-(2,4-dichlorophenoxy)phenol]	69			
O=C(OCCc1ccccc1)c1ccccc1C(=O)OCCc1ccccc1 [Di-2-phenylethyl phthalate, di-2-phenylethyl phthalate]		30	31	
CCCN(CCC)c1c([N+](=O)[O-])cc(C(F)(F)F)c(N)c1[N+](=O)[O-] [Prodiamine, 5-Dipropylamino-α,α,α-trifluoro-4,6-dinitro-o-toluidine]	5			24
